From ChEMBL document CHEMBL1148149, “Bufadienolide and spirostanol glycosides from the rhizomes of helleborusorientalis” (J Nat Prod, 2003)
Values after ≈ are worked out from the molar mass of the structure shown.

Tests used:
Format in all cases: functional, cell-based
HSC-2 = test: Cytotoxicity against human HSC2 cells after 24 hrs by MTT assay; details: HSC-2, 24 h
A-375 = test: Cytotoxicity against human A375 cells after 24 hrs by MTT assay; details: A-375, 24 h
HepG2 = test: Cytotoxicity against human HepG2 cells after 24 hrs by MTT assay; details: HepG2, 24 h
[1] = Cytotoxicity against human HPC cells after 24 hrs by MTT assay

Compound	IC50 (HSC-2) [µg/mL]	IC50 (A-375) [µg/mL]	IC50 (HepG2) [µg/mL]	IC50 [1] [µg/mL]
C[C@]12CC[C@H]3[C@@H](CC[C@]4(O)C[C@@H](O[C@@H]5O[C@H](CO)[C@@H](O)[C@H](O)[C@H]5O)CC[C@]34C=O)[C@@]1(O)CC[C@@H]2c1ccc(=O)oc1	0.0029 (≈ 0.00501 µM)	0.0086 (≈ 0.0149 µM)	0.23 (≈ 0.397 µM)	0.082 (≈ 0.142 µM)
C[C@@H]1O[C@@H](O[C@H]2CC[C@]3(C=O)[C@H]4CC[C@]5(C)[C@@H](c6ccc(=O)oc6)CC[C@]5(O)[C@@H]4CC[C@]3(O)C2)[C@H](O)[C@H](O)[C@H]1O	0.0028 (≈ 0.00498 µM)	0.0063 (≈ 0.0112 µM)	0.25 (≈ 0.444 µM)	6.7 (≈ 11.9 µM)
C=C1CO[C@@]2(O[C@H]3C[C@H]4[C@@H]5CC=C6C[C@@H](O)C[C@@H](O[C@@H]7OC[C@H](O)[C@H](O[C@@H]8OC[C@@H](O)[C@H](O)[C@H]8O)[C@H]7O[C@@H]7O[C@@H](C)[C@H](OC(C)=O)[C@@H](O[C@@H]8OC[C@](O)(CO)[C@H]8O)[C@H]7O)[C@]6(C)[C@H]5CC[C@]4(C)[C@H]3[C@@H]2COC(C)=O)[C@@H](O)[C@H]1O	184 (≈ 167 µM)	–	–	–
C=C1CO[C@@]2(O[C@H]3C[C@H]4[C@@H]5CC=C6C[C@@H](O)C[C@@H](O[C@@H]7OC[C@H](O)[C@H](O[C@@H]8OC[C@@H](O)[C@H](O)[C@H]8O)[C@H]7O[C@@H]7O[C@@H](C)[C@H](OC(C)=O)[C@@H](O[C@@H]8OC[C@](O)(CO)[C@H]8O)[C@H]7O)[C@]6(C)[C@H]5CC[C@]4(C)[C@H]3[C@@H]2C)[C@@H](O)[C@H]1O	86 (≈ 82.3 µM)	–	–	–
COc1cccc2c1C(=O)c1c(O)c3c(c(O)c1C2=O)C[C@@](O)(C(=O)CO)C[C@@H]3O[C@H]1C[C@H](N)[C@H](O)[C@H](C)O1 [DOXORUBICIN]	2.5 (≈ 4.6 µM)	1.8 (≈ 3.31 µM)	> 40	> 40
C=C1CO[C@@]2(O[C@H]3C[C@H]4[C@@H]5CC=C6C[C@@H](O)C[C@@H](O[C@@H]7OC[C@H](O)[C@H](O[C@@H]8OC[C@@H](O)[C@H](O)[C@H]8O)[C@H]7O[C@@H]7O[C@@H](C)[C@H](OC(C)=O)[C@@H](O[C@@H]8OC[C@](O)(CO)[C@H]8O)[C@H]7O)[C@]6(C)[C@H]5CC[C@]4(C)[C@H]3[C@@H]2COC(C)=O)[C@@H](O)[C@H]1O[C@@H]1O[C@H](C)[C@@H](O)[C@H](O)[C@H]1O	> 200	–	–	–
C=C1CO[C@@]2(O[C@H]3C[C@H]4[C@@H]5CC=C6C[C@@H](O)C[C@@H](O[C@@H]7OC[C@H](O)[C@H](O[C@@H]8OC[C@@H](O)[C@H](O)[C@H]8O)[C@H]7O[C@@H]7O[C@@H](C)[C@H](OC(C)=O)[C@@H](O[C@@H]8OC[C@](O)(CO)[C@H]8O)[C@H]7O)[C@]6(C)[C@H]5CC[C@]4(C)[C@H]3[C@@H]2COC(C)=O)[C@@H](O)[C@H]1O[C@@H]1O[C@H](CO)[C@@H](O)[C@H](O)[C@H]1O	> 200	–	–	–
C[C@@H]1O[C@@H](O[C@H]2CC[C@]3(C=O)[C@H]4CC[C@]5(C)[C@@H](c6ccc(=O)oc6)[C@@H](O)C[C@]5(O)[C@@H]4CC[C@]3(O)C2)[C@H](O)[C@H](O)[C@H]1O	0.0085 (≈ 0.0147 µM)	0.055 (≈ 0.095 µM)	0.74 (≈ 1.28 µM)	9.5 (≈ 16.4 µM)
C=C1CO[C@@]2(O[C@H]3C[C@H]4[C@@H]5CC=C6C[C@@H](O)C[C@@H](O[C@@H]7OC[C@H](O)[C@H](O[C@@H]8OC[C@@H](O)[C@H](O)[C@H]8O)[C@H]7O[C@@H]7O[C@@H](C)[C@H](OC(C)=O)[C@@H](O[C@@H]8OC[C@](O)(CO)[C@H]8O)[C@H]7O)[C@]6(C)[C@H]5CC[C@]4(C)[C@H]3[C@@H]2C)[C@@H](O)C1	27 (≈ 26.2 µM)	–	–	–
